The text below walks through data of ChEMBL document CHEMBL3044761, “Lethal Activity of a Trehalase Inhibitor, Validoxylamine A, against Mamestra brassicae and Spodoptera litura” (J Pestic Sci, 1994).

The subject of assay [1] is Spodoptera litura. The experiment in a line: Insecticidal activity against last-instar Spodoptera litura larvae assessed as wing pad separation at 50 ug/larvae topical application (reference value: 100%). The class given is functional.
In assay [2] the test system is Spodoptera litura. The experiment in a line: Insecticidal activity against last-instar Spodoptera litura larvae assessed as wing pad separation injected at 0.4 ug/larvae (reference value: 100%). The format is functional.
Assay [3] has as its system Mamestra brassicae. Kind of assay: Insecticidal activity against last-instar Mamestra brassicae larvae assessed as partial pupation at 50 ug/larvae topical application (reference value: 10%). The format is functional.
In assay [4] the test system is Mamestra brassicae. The experiment in a line: Insecticidal activity against last-instar Mamestra brassicae larvae assessed as mortality. The format is functional.
Assay [5] deals with Mamestra brassicae. Kind of assay: Insecticidal activity against last-instar Mamestra brassicae larvae assessed as normal pupae at 50 ug/larvae topical application (reference value: 90%). The class given is functional.
The test system of assay [6] is Mamestra brassicae. Kind of assay: Insecticidal activity against last-instar Mamestra brassicae larvae assessed as larval-pupal intermediate injected at 1 ug/larvae (reference value: 0%). The class given is functional.
The subject of assay [7] is Mamestra brassicae. Kind of assay: Insecticidal activity against last-instar Mamestra brassicae larvae assessed as larval-pupal intermediate at 50 ug/larvae topical application (reference value: 0%). The format is functional.
For assay [8], the system named is Spodoptera litura. The experiment in a line: Insecticidal activity against last-instar Spodoptera litura larvae assessed as larval pupal intermediate injected at 10 ug/larvae (reference value: […]). The format is functional.
For assay [9], the system named is Mamestra brassicae. Kind of assay: Insecticidal activity against last-instar Mamestra brassicae larvae assessed as larval-pupal intermediate injected at 5 ug/larvae (reference value: 0%). The format is functional.
Assay [10] has as its system Mamestra brassicae. Kind of assay: Insecticidal activity against last-instar Mamestra brassicae larvae assessed as normal pupae injected at 10 ug/larvae (reference value: 90%). The class given is functional.
In assay [11] the test system is Mamestra brassicae. Kind of assay: Insecticidal activity against last-instar Mamestra brassicae larvae assessed as normal pupae at 50 ug/larvae oral administration (reference value: 90%). The class given is functional.
Assay [12] concerns Spodoptera litura. The experiment in a line: Insecticidal activity against last-instar Spodoptera litura larvae assessed as partial pupation injected at 2 ug/larvae (reference value: 100%). The format is functional.
Assay [13] has as its system Mamestra brassicae. Kind of assay: Insecticidal activity against last-instar Mamestra brassicae larvae assessed as larval-pupal intermediate injected at 10 ug/larvae (reference value: 0%). The format is functional.
For assay [14], the target named is T1, Trehalase (Bombyx mori) (UniProt P32358).
T1 sequence (whole entry): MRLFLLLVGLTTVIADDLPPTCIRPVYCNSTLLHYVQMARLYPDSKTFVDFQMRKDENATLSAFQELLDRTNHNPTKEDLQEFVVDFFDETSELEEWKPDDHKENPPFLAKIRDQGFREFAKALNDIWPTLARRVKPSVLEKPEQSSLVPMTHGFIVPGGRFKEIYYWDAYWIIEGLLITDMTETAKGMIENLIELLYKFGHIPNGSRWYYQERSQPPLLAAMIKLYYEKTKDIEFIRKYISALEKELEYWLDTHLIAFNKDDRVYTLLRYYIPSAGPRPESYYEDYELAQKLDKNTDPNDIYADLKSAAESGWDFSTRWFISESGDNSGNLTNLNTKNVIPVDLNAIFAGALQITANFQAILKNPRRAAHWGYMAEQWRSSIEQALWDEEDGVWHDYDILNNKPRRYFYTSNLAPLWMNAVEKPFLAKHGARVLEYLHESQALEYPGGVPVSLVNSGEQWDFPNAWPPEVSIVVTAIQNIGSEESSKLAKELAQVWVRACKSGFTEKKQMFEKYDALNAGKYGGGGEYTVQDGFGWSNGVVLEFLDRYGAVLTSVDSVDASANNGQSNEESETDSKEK
Kind of assay: Inhibition of Bombyx mori trehalase activity in arborescent region of colleterial glands at 1 ug/pupa.

In the next assay the target is T2, Trehalase (Rattus norvegicus, UniProt O70282).
T2 sequence (O70282 whole entry): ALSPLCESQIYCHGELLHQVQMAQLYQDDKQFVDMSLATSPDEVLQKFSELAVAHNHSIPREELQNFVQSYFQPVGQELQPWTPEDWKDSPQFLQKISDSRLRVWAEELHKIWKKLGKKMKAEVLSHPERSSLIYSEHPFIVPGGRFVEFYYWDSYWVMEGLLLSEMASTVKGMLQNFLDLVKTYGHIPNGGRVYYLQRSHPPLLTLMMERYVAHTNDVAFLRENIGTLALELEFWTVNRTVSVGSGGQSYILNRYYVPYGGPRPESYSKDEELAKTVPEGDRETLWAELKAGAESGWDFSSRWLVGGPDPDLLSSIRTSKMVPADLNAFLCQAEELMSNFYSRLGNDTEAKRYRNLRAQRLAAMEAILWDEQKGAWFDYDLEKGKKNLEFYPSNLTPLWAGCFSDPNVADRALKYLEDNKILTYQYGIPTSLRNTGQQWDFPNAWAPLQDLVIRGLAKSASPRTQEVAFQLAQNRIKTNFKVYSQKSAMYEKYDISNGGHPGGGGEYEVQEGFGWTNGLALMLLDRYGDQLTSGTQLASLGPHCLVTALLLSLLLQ
The experiment in a line: Inhibition of Rattus norvegicus (rat) trehalase. Conditions: read-out: I50.

Assay [15] deals with Mamestra brassicae. Kind of assay: Insecticidal activity against last-instar Mamestra brassicae larvae assessed as normal pupae injected at 5 ug/larvae (reference value: 90%). The class given is functional.
The subject of assay [16] is Spodoptera litura. The experiment in a line: Insecticidal activity against last-instar Spodoptera litura larvae assessed as mortality. The class given is functional.
For assay [17], the system named is Mamestra brassicae. The experiment in a line: Insecticidal activity against last-instar Mamestra brassicae larvae assessed as larval-pupal intermediate injected at 50 ug/larvae (reference value: 0%). The class given is functional.
Assay [18] concerns Mamestra brassicae. Kind of assay: Insecticidal activity against last-instar Mamestra brassicae larvae assessed as wing pad separation injected at 1 ug/larvae (reference value: 0%). The class given is functional.
Assay [19] addresses T1, Trehalase (Bombyx mori). Kind of assay: Inhibition of Bombyx mori trehalase activity in total ovaries at 10 ug/pupa. Particulars: Female gonad.
The subject of assay [20] is Mamestra brassicae. The experiment in a line: Insecticidal activity against last-instar Mamestra brassicae larvae assessed as partial pupation injected at 1 ug/larvae (reference value: 10%). The format is functional.
The test system of assay [21] is Spodoptera litura. Kind of assay: Insecticidal activity against last-instar Spodoptera litura larvae assessed as partial pupation injected at 50 ug/larvae (reference value: 100%). The class given is functional.
Assay [22] has as its system Spodoptera litura. Kind of assay: Insecticidal activity against last-instar Spodoptera litura larvae assessed as normal pupae at 50 ug/larvae topical application (reference value: 100%). The class given is functional.
Assay [23] has as its system Spodoptera litura. The experiment in a line: Insecticidal activity against last-instar Spodoptera litura larvae assessed as wing pad separation injected at 2 ug/larvae (reference value: 100%). The class given is functional.

Take `OCC1=C[C@H](N[C@H]2C[C@H](CO)[C@@H](O)[C@H](O)[C@H]2O)[C@H](O)[C@@H](O)[C@@H]1O` [VALIDOXYLAMINE A]: the Activity with Spodoptera litura [1] turned out to be 5%; in the assay on Spodoptera litura [2], 5%; in the assay on Mamestra brassicae [3] it was 40%; in the assay with Mamestra brassicae [5], 60%; in the assay with Mamestra brassicae [6], 27%; with Mamestra brassicae [7] it was 0%. Further, the Activity in the assay on Spodoptera litura [8] amounted to 25%; in the assay with Mamestra brassicae [9], 60%; in the assay on Mamestra brassicae [10], 0%; in the assay on Mamestra brassicae [11], 90%; in the assay with Spodoptera litura [12], 20%; in the assay on Mamestra brassicae [13], 80%. The Activity with Mamestra brassicae [15] was found to be 7%; in the assay on Mamestra brassicae [17] it was 100%; in the assay on Mamestra brassicae [18], 20%; in the assay on Mamestra brassicae [20], 27%; with Spodoptera litura [21], 30%; with Spodoptera litura [22], 85%. Besides, the Activity in the assay with Spodoptera litura [23] is recorded as 5%. Also, the LD50 with Mamestra brassicae [4] is below 1 µg; in the assay on Spodoptera litura [16], 2.42 µg. Moreover, the inhibition against Trehalase (Bombyx mori) [14] and against Trehalase (Bombyx mori) [19] was 78% in each case. Further, the IC50 at Trehalase came to 4.9 nM.

In general, inhibition refers to the percentage by which the read-out fell short of the control.
